What was measured:
Test in all cases: relative viability (nuclei count vs DMSO), 5 days (fraction); higher = more cells survive
AZD5582 = compound: C[C@@H](C(=O)N[C@@H](C1CCCCC1)C(=O)N2CCC[C@H]2C(=O)N[C@@H]3[C@@H](CC4=CC=CC=C34)OCC#CC#CCO[C@@H]5CC6=CC=CC=C6[C@@H]5NC(=O)[C@@H]7CCCN7C(=O)[C@H](C8CCCCC8)NC(=O)[C@H](C)NC)NC [AZD5582]
Procedure, shortened: (§1)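 For viability, nuclei in each treated well were divided by nuclei in vehicle wells and the median across plates was taken. Lung cancer cell lines in 1536-well plates were pinned with five library-drug doses (not always all listed) spaced by √10, cultured 5 days without medium change, and imaged at 4× after Hoechst staining, with plates passing only at control CV below 25% and at least one doubling.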

Temozolomide = compound: Cn1nnc2c(C(N)=O)ncn2c1=O [Temozolomide]
Procedure, shortened: as §1

AZD5582 + Bortezomib = compound: C[C@@H](C(=O)N[C@@H](C1CCCCC1)C(=O)N2CCC[C@H]2C(=O)N[C@@H]3[C@@H](CC4=CC=CC=C34)OCC#CC#CCO[C@@H]5CC6=CC=CC=C6[C@@H]5NC(=O)[C@@H]7CCCN7C(=O)[C@H](C8CCCCC8)NC(=O)[C@H](C)NC)NC [AZD5582] + CC(C)C[C@H](NC(=O)[C@H](Cc1ccccc1)NC(=O)c1cnccn1)B(O)O [Bortezomib] (partner 0.002 µM)
Procedure, shortened: (§2)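 Lung cancer cell lines were seeded in 1536-well plates and dosed by pin tool the next day, with either a single drug or a fixed anchor-drug dose combined with five library-drug doses (not always all listed) spaced in √10 steps. Five days later, one step fixed the cells and stained their nuclei (final 0.05% Triton X-100, 1% formaldehyde, 1 ug/ml Hoechst), and nuclei were counted on 4× images. Relative viability is the nuclei count in treated wells divided by the count in vehicle wells, and each value is the median of duplicate plates.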

AZD5582 + AZD7762 = compound: C[C@@H](C(=O)N[C@@H](C1CCCCC1)C(=O)N2CCC[C@H]2C(=O)N[C@@H]3[C@@H](CC4=CC=CC=C34)OCC#CC#CCO[C@@H]5CC6=CC=CC=C6[C@@H]5NC(=O)[C@@H]7CCCN7C(=O)[C@H](C8CCCCC8)NC(=O)[C@H](C)NC)NC [AZD5582] + NC(=O)Nc1cc(-c2cccc(F)c2)sc1C(=O)N[C@H]1CCCNC1 [AZD7762] (partner 0.2 µM); settings: first compound 0.05 µM
Procedure, shortened: as §2

Temozolomide + Alpelisib = compound: Cn1nnc2c(C(N)=O)ncn2c1=O [Temozolomide] + Cc1nc(NC(=O)N2CCC[C@H]2C(N)=O)sc1-c1ccnc(C(C)(C)C(F)(F)F)c1 [Alpelisib] (partner 2 µM)
Procedure, shortened: as §2

For NCI-H1703, the relative viability (AZD5582; 0.005 µM) was 0.853, the relative viability (AZD5582; 0.01581 µM) was 0.952 and the relative viability (AZD5582; 0.05 µM) was 0.925. It also gave a relative viability (Temozolomide; 0.2 µM) of 0.986, a relative viability (Temozolomide; 0.6325 µM) of 0.947 and a relative viability (Temozolomide; 2 µM) of 1.29. The relative viability (Temozolomide; 6.325 µM) was 0.825, the relative viability (Temozolomide; 20 µM) was 0.965 and the relative viability (AZD5582 + Bortezomib; first compound 0.001581 µM) was 0.228. For the same cell line, the relative viability (AZD5582 + Bortezomib; first compound 0.005 µM) was 0.277, the relative viability (AZD5582 + Bortezomib; first compound 0.01581 µM) was 0.43 and the relative viability (AZD5582 + Bortezomib; first compound 0.05 µM) was 0.2. It also gave a relative viability (AZD5582 + AZD7762) of 0.126, a relative viability (Temozolomide + Alpelisib; first compound 0.2 µM) of 0.367 and a relative viability (Temozolomide + Alpelisib; first compound 0.6325 µM) of 0.344. The relative viability (Temozolomide + Alpelisib; first compound 2 µM) was 0.463, the relative viability (Temozolomide + Alpelisib; first compound 6.325 µM) was 0.288 and the relative viability (Temozolomide + Alpelisib; first compound 20 µM) was 0.315.
